From PubChem BioAssay AID1845210 (Molecular Pharmacology Branch, DTP, NCI, 2023) come the findings set out here.

Each structure is given as a SMILES string. “And” between values parts separate entries of the source, which are not always exact repeats. Identical values can stand only once.

This experiment concerns NCI-H226 complex tumor spheroids, viability. The experiment can be described thus: Anticancer human tumor NCI-H226 cell line growth inhibition.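 As to all read-outs here: spheroids exposed to compound for 7 days.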 The note with it: for viability, T/C: stronger effect = lower value. From the text:
Multicellular complex tumor spheroid response to DNA repair inhibitors in combination with DNA-damaging drugs
This study explores the anticancer activities of DNA-damaging drugs and inhibitors of DNA damage repair, both as single agents and in combinations. Complex tumor spheroids comprised of malignant cells, endothelial cells and mesenchymal stem cells served as an in vitro model for human solid tumors. This model system incorporates physiologically relevant features and patient-derived or established malignant cell lines with clinically relevant genetic alterations from many tumor types. Twenty-six patient-derived or established malignant cell lines were evaluated representing sarcoma, melanoma, small cell lung cancer (SCLC), non-small cell lung cancer (NSCLC), as well as bladder, ovarian and pancreatic cancers. The concentration ranges selected for each drug and investigational agent were based upon clinically achievable concentrations if the clinical Cmax of the agent was known.
Compounds. The drugs and compounds olaparib (NSC753686), talazoparib (NSC767125), berzosertib (NSC777718), elimusertib (NSC800525), nedisertib (NSC802822), VX-984 (NSC792969), AZD-1390 (NSC803789), temozolomide (NSC362856), topotecan (NSC609699), trabectedin (NSC813783), staurosporine (NSC755774), and gemcitabine (NSC613327) were obtained from the National Cancer Institute (NCI) Developmental Therapeutics Program Chemical Repository. The FDA-approved anticancer drug set is available from the Developmental Therapeutics Program at https://dtp.cancer.gov/organization/dscb/obtaining/available_plates.htm. […] The stock solutions were prepared in dimethyl sulfoxide (DMSO, Sigma-Aldrich, St. Louis, MO, cat. D2650) at 400-fold the tested concentration and stored at -70 degrees C. Prior to their use, the stock solutions were diluted in fresh medium and the final DMSO concentration in the assay was 0.25% (v/v). All drugs and investigational agents were tested over a range starting from a high concentration at or near the clinical Cmax and decreasing in half-log increments. If the clinical Cmax for an agent had not been determined, the highest concentration tested was 10 microM.
Cell Lines. The patient-derived cancer cell (PDC) lines: 156681-154-R-J1-PDC, 283228-195-R-J1-PDC, 287954-098-R-J1-PDC, 292921-168-R-J2-PDC, 349418-098-R-PDC, 425362-245-T-J1-PDC, 556581-035-R-J1-PDC, and BL0293-F563-PDC were received from the NCI Patient-Derived Models Repository (PDMR, https://pdmr.cancer.gov). The established cell lines HS-SY-2 (RRID:CVCL_8719), MPNST, and SYO-1 (RRID:CVCL_7146) were obtained from the Sloan Kettering Institute. The alveolar soft parts sarcoma cell line ASPS-1 (RRID:CVCL_S738) was established at the NCI and grown from internal seed stocks. The following established cell lines were purchased from the American Type Culture Collection (ATCC, Manassas, VA): G-401 (ATCC, cat. CRL-1441, RRID:CVCL_0270), SW982 (ATCC, cat. HTB-93, RRID:CVCL_1734), VA-ES-BJ (ATCC, cat. CRL-2138, RRID:CVCL_1785), NCI-H719 (ATCC, cat. CRL-5837, RRID:CVCL_1582), NCI-H196 (ATCC, cat. CRL-5823, RRID:CVCL_1509), NCI-H841 (ATCC, cat. CRL-5845, RRID:CVCL_1595), NCI-H1618 (ATCC, cat. CRL-5879, RRID:CVCL_1480), NCI-H1876 (ATCC, cat. CRL-5902, RRID:CVCL_1503), DMS 114 (ATCC, cat. CRL-2066; RRID:CVCL_1174), NCI-H211 (ATCC, cat. CRL-5824; RRID:CVCL_1529), and SW 1271 (ATCC, cat. CRL-2177, RRID:CVCL_1716). The small cell lung cancer cell line COR-L88 was purchased from Sigma-Aldrich (cat. 92031917-1VL, RRID:CVCL_1141). The non-small cell lung cancer cell lines NCI-H226 (RRID:CVCL_1544) and NCI-H322M (RRID:CVCL_1557) were established at the NCI and grown from internal seed stocks. Pooled donor human umbilical vein endothelial cells (HUVEC, Lonza, cat. CC-2519) and human mesenchymal stem cells (hMSC, Lonza, cat. PT-2501) were purchased from Lonza (Walkersville, MD).
Cell Culture. All cells were maintained in an incubator at 37 degrees C and 5% CO2 with 95% humidity. […]

The mark [1] stands for this setting: compound alone, run of 12/02/2019.
Setting [2] is: compound alone, run of 12/12/2019.

What is called viability, T/C is the result in the treated group divided by that in the control group, in per cent. One may read the IC50 as the concentration at which inhibition is half-maximal. Turning to `CC(C)n1c(=O)n(C)c2cnc3cc(F)c(-c4ccc(OCCCN5CCCCC5)nc4)cc3c21`, the viability, T/C is 99.6% and 101% and 93.1% (compound 0.0316 µM); 103% and 96.9% and 104% (compound 0.1 µM); 103% and 112% and 102% (compound 0.316 µM); 111% and 98% and 84.2% (compound 1 µM); 107% and 97.5% and 102% (compound 3.16 µM). Further, for the setting “curve of compound”, the IC50 is > 10 µM and 5.69 µM and 7.57 µM.
Turning to `CC1COCCN1c1cc(-c2ccnn2C)c2ccnc(-c3ccn[nH]3)c2n1` (stereo not drawn), the viability, T/C (compound 0.0316 µM) was 93.9% and 94.7% and 94.8%; the viability, T/C (compound 0.1 µM) is 102% and 91% and 82.2%; the viability, T/C (compound 0.316 µM) is 86% and 74% and 68.6%; the viability, T/C (compound 1 µM) is 60.4% and 53.3% and 47.3%; the viability, T/C (compound 3.16 µM) was 52.5% and 44.6% and 45.4%; the viability, T/C (compound 10 µM) was 42.9% and 39.2% and 35.2%. Also, the IC50 (curve of compound) was 2.74 µM and 1.5 µM and 1.13 µM.
As to `CC[C@@]1(O)C(=O)OCc2c1cc1n(c2=O)Cc2cc3c(CN(C)C)c(O)ccc3nc2-1`, the viability, T/C (compound 0.003 µM) is 94.5% [middle of 10 runs]; the viability, T/C (compound 0.03 µM) is 86% [middle of 10 runs]; the viability, T/C (compound 0.0949 µM) is 86.1% [middle of 10 runs]; the viability, T/C (compound 0.3 µM) is 66.8% [middle of 10 runs]. Further, the IC50 is more than 0.3 µM under setting [1] and more than 0.3 µM under setting [2].
Take `CNCc1ccc(-c2cc(-c3nc(-c4ccc(S(=O)(=O)C(C)C)cc4)cnc3N)on2)cc1`: the viability, T/C reads like this: (compound 0.00949 µM) 109% and 97.8% and 83.3%; (compound 0.03 µM) 126% and 123% and 90.1%; (compound 0.0949 µM) 132% and 112% and 106%; (compound 0.3 µM) 124% and 127% and 118%; (compound 0.949 µM) 20% and 109% (2×); (compound 3 µM) 0.4% and 2.72% and 0.64%. For the same molecule, for the setting “curve of compound”, the IC50 was 0.678 µM and 1.8 µM and 1.71 µM.
Turning to `COc1cc(C)[nH]c(=O)c1CN1CCc2c(Cl)cc(C(OC)C3COC3)c(Cl)c2C1=O` (stereo not drawn), the viability, T/C is 90.2% and 107% and 114% (compound 0.0316 µM); 113% and 115% and 102% (compound 0.1 µM); 109% and 125% and 108% (compound 0.316 µM); 110% and 115% and 102% (compound 1 µM); 114% and 134% and 116% (compound 3.16 µM); 116% and 120% and 108% (compound 10 µM). Further, the IC50 (curve of compound) was more than 10 µM.
For `COc1cc2c(cc1O)CCNC21CSC2c3c(OC(C)=O)c(C)c4c(c3C(COC1=O)N1C(O)C3Cc5cc(C)c(OC)c(O)c5C(C21)N3C)OCO4` (stereo not drawn), the viability, T/C runs as follows: (compound 30 pM) 104% [middle of 10 runs]; (compound 0.003 µM) 1.23% [middle of 10 runs]. In addition, under setting [2], the IC50 was 1.76 nM [middle of 10 runs].
`COc1ccc([C@@H](O)c2cc(-c3ncnc4cc(N5CCOCC5)ccc34)c(F)cc2Cl)nn1`: the viability, T/C reads like this: (compound 0.0316 µM) 96.6% and 91% and 98.2%; (compound 0.1 µM) 93.2% and 99.9% and 94.4%; (compound 0.316 µM) 89.3% and 96.3% and 93.6%; (compound 1 µM) 80.3% and 71.2% and 82.1%; (compound 3.16 µM) 54.6% and 52.2% and 55.1%; (compound 10 µM) 39.5% and 35.6% (2×). Moreover, where the note is “curve of compound”, the IC50 was 4.63 µM and 3.04 µM and 4.29 µM.
On to `Cc1cc(C)c(CNC(=O)c2cc(-c3ccc(CN4CCOCC4)cc3)cc3c2cnn3C2CCCC2)c(=O)[nH]1`, for which the viability, T/C reads like this: (compound 0.0316 µM) 100% (2×) and 94.5%; (compound 0.1 µM) 102% and 112% and 103%; (compound 0.316 µM) 99% and 107% and 112%; (compound 1 µM) 83.4% and 110% and 97.2%; (compound 3.16 µM) 91% and 115% and 98.1%; (compound 10 µM) 91.5% and 118% and 100%. In addition, the IC50 (curve of compound) was more than 10 µM.
Consider `Cc1sc2c(c1C)C(c1ccc(Cl)cc1)=NC(CC(=O)Nc1ccc(O)cc1)c1nnc(C)n1-2` (stereo not drawn), for which the viability, T/C is 80.2% and 99.2% and 85.2% (compound 0.00949 µM); 72.7% and 73.6% and 78.2% (compound 0.03 µM); 79.5% and 64.3% and 96.1% (compound 0.0949 µM); 57.7% and 57.8% and 77.4% (compound 0.3 µM); 47.1% and 50.4% and 73.6% (compound 0.949 µM); 38.5% and 49.4% and 63.2% (compound 3 µM). Further, the IC50 (curve of compound) is 0.592 µM and > 3 µM.
With `Cn1ncnc1[C@H]1c2n[nH]c(=O)c3cc(F)cc(c23)N[C@@H]1c1ccc(F)cc1`, the viability, T/C is 96.2% and 89.2% and 90.4% (compound 0.00949 µM); 94.6% and 95.9% and 92.7% (compound 0.03 µM); 87.4% and 93.6% and 101% (compound 0.0949 µM); 89.4% and 101% and 88.2% (compound 0.3 µM); 88.6% and 84.1% and 87% (compound 0.949 µM); 94.2% and 99.2% and 107% (compound 3 µM). Further, for the setting “curve of compound”, the IC50 is more than 3 µM.
On to `Cn1nnc2c(C(N)=O)ncn2c1=O`, for which the viability, T/C was 112% [middle of 10 runs] (compound 3.16 µM), 108% [middle of 10 runs] (compound 10 µM), 110% [middle of 10 runs] (compound 31.6 µM) and 109% [middle of 10 runs] (compound 100 µM). Under setting [1], the IC50 was more than 100 µM.
For `O=C(c1cc(Cc2n[nH]c(=O)c3ccccc23)ccc1F)N1CCN(C(=O)C2CC2)CC1`, the viability, T/C runs as follows: (compound 0.0949 µM) 98.6% and 105% and 103%; (compound 0.3 µM) 97.1% and 100% and 96.8%; (compound 0.949 µM) 104% (2×) and 101%; (compound 3 µM) 98.5% and 99.3% and 93.9%; (compound 9.49 µM) 96.9% and 87.4% and 106%; (compound 30 µM) 92.1% and 79% and 86.7%. Further, the IC50 (curve of compound) is more than 30 µM.
Turning to `[2H]c1nc(C)nc([2H])c1-c1cc(NC[C@@H](C)c2cccc3c(C(=O)NC)ccnc23)ncn1`, the viability, T/C reads like this: (compound 0.0316 µM) 93.8% and 95.7% and 112%; (compound 0.1 µM) 101% and 95.3% and 97.7%; (compound 0.316 µM) 103% and 106% and 88.5%; (compound 1 µM) 107% and 106% and 93.5%; (compound 3.16 µM) 101% and 99.3% and 88.1%; (compound 10 µM) 111% and 114% and 106%. The IC50 (curve of compound) was more than 10 µM.
